The values below come from patent US20240109915A1, “NOVEL ACC INHIBITORS” (Pfizer Inc., priority 2022, published 2024).

The target in series [1] is recombinant human ACC1 (rhACC1) (Homo sapiens (Human), UniProt Q13085). The experiment in a line: Transcreener ADP detection FP assay, direct inhibition of rhACC1. Format: biochemical. To be noted: Geomean IC50, n ≥ 2 unless * then n = 1; 50 μM ATP, 30 μM acetyl-CoA.
Series [2] has as its system SZ95 sebocytes. Put plainly: Radiometric measurement of de novo lipogenesis in cultured human sebocytes. The class given is cell-based. To be noted: Geomean IC50, n>2 unless * then n=1, 14C acetate incorporation into lipids (DNL). How it is done: SZ95 sebocytes were grown in Human Sebocyte Growth Medium (HSGM) containing Sebomed® basal medium (Sigma-Aldrich, F8205) supplemented with 10% heat-inactivated fetal bovine serum (Gibco, 10100-147), 1% penicillin/streptomycin (Gibco, 15070-063), 1 mM calcium chloride (Fisher, BP9742-10X5) and 5 ng/mL recombinant human epidermal growth factor (Gibco, PHG0311). At 90% confluence, cells were washed with PBS and then detached with 0.05% Trypsin-EDTA (Gibco, 25300054). Prior to starting the assay, cells were centrifuged and resuspended in HSGM containing 5% charcoal-stripped serum (Life Technologies, 12676-029) instead of 10% heat-inactivated fetal bovine serum. Cells were added to 24-well plates at a density of 0.25×10^6 cells/well and incubated overnight at 37° C. to allow the cells to adhere to the culture plate. Cells were then treated with a dose response of compound (30, 1, 0.03, 0.006, 0.0009, 0.0002, and 0.00003 μM) with each concentration tested in duplicate. Briefly, compounds were dissolved in DMSO stocks and diluted 1:1000 into HSGM with charcoal-stripped media. The vehicle control wells were treated with 0.1% DMSO. After a 1-hour preincubation with compound or vehicle at 37° C., 0.25 μCi ^14C sodium acetate (American Radiolabeled Chemicals: ARC, 0173A) was added to each well. Plates were incubated for an additional two hours at 37° C. At the end of the incubation period, cells were removed from incubator, placed on ice, and then washed twice with ice-cold PBS to remove free ^14C-sodium acetate. Plates were sealed and stored at −20° C. until analysis. To induce lysis, 125 μL of mammalian protein extraction reagent (MPER; Fisher, 78501) was added to each well. Plates were shaken for 1 hour at room temperature and lysates transferred to individual 2 mL polypropylene tubes. Wells were then washed with 175 μL PBS, which was added to lysates. A chloroform:methanol solution (1:1 v/v, 450 μL) was added to each tube. All tubes were vortexed for 10 seconds and centrifuged at 14,000×g for 5 minutes at room temperature to separate the aqueous and organic phases. A 25 μL aliquot was removed from the bottom organic layer of each sample and added to 6 mL Optiphase Supermix scintillation fluid (PerkinElmer, 1200-439). Counts of ^14C were assessed by scintillation counting. DNL (counts of ^14C incorporated into lipids) was expressed as a percentage for compound treated cells relative to the vehicle control. IC50 values were determined using a non-linear regression (four parameter with variable slope) in GraphPad Prism.

Series [3] can be described thus: Metabolite profile in liver microsomes, hepatocytes, recombinant human P450 and UGT enzymes, and animal plasma. Format: in vitro ADME, mouse, rat, rabbit, dog, monkey. To be noted: recombinant human cytochrome P450 and UGT enzymes, plasma from animals. How it is done:
The metabolite profile of compound of Example 14 was evaluated in liver microsomes and hepatocytes (mouse, rat, rabbit, dog, monkey, and human), recombinant human cytochrome P450 enzymes, recombinant human UGT enzymes, and plasma from animals (mouse, rat, and dog).
A general note: Microsomes from liver hold many membrane-bound enzymes, among them those of drug oxidation.

As to `Cc1cc(C(=O)N2CCC3(CC2)CC(=O)c2nc(C(C)(C)C)sc2C3)cc2ccccc12` [Example 16, 2-(tert-butyl)-1′-(4-methyl-2-naphthoyl)-5H-spiro[benzo[d]thiazole-6,4′-piperidin]-4(7H)-one], the IC50 – broadly, the midpoint of a concentration-inhibition curve – was 0.0073 µM in series [1] and 0.0181 µM in series [2].
As for `CCOc1cc(C(=O)N2CCC3(CC2)CC(=O)c2nc(C(C)(C)C)sc2C3)cc2c(C)nn(C)c12` [Example 14, 2-(tert-butyl)-1′-(7-ethoxy-1,3-dimethyl-1H-indazole-5-carbonyl)-5H-spiro[benzo[d]thiazole-6,4′-piperidin]-4(7H)-one], the IC50 worked out at 0.0022 µM in series [1] and 0.0059 µM in series [2]. For the same compound, the metabolite profile result in series [3] is “oxidation and glucuronidation”.
For the compound `COc1cc(C(=O)N2CCC3(CC2)CC(=O)c2nc(C(C)(C)C)sc2C3)cc2[nH]ccc12` [Example 61], the figures for the IC50 in series [1] and in series [2] were 0.0044 µM and 0.0308 µM, respectively.
The corresponding values for `COc1cc(C(=O)N2CCC3(CC2)CC(=O)c2nc(C(C)(C)C)sc2C3)cc2c(C)nn(C)c12` [Example 13, 2-(tert-butyl)-1′-(7-methoxy-1,3-dimethyl-1H-indazole-5-carbonyl)-5H-spiro[benzo[d]thiazole-6,4′-piperidin]-4(7H)-one] are 0.0053 µM and 0.0135 µM.
Taken in the same sequence, the figures for `COc1cc(C(=O)N2CCC3(CC2)CC(=O)c2nc(C(C)(C)C)sc2C3)c2[nH]ncc2c1C` [Example 33, 2-(tert-butyl)-1′-(5-methoxy-4-methyl-1H-indazole-7-carbonyl)-5H-spiro[benzo[d]thiazole-6,4′-piperidin]-4(7H)-one] were 0.0051 µM and 0.0381 µM.
For the compound `Cc1cc(C(=O)N2CCC3(CC2)CC(=O)c2nc(C(C)(C)C)sc2C3)cc2c(Cl)c[nH]c12` [Example 42, 2-(tert-butyl)-1′-(3-chloro-7-methyl-1H-indole-5-carbonyl)-5H-spiro[benzo[d]thiazole-6,4′-piperidin]-4(7H)-one], the IC50 in series [1] amounted to 0.0031 µM; in series [2], 0.0159 µM.
As to `COc1cnc2c(C)cc(C(=O)N3CCC4(CC3)CC(=O)c3nc(C(C)(C)C)sc3C4)cc2c1` [Example 19, 2-(tert-butyl)-1′-(3-methoxy-8-methylquinoline-6-carbonyl)-5H-spiro[benzo[d]thiazole-6,4′-piperidin]-4(7H)-one], the IC50 in series [1] is 0.0099 µM; in series [2], 0.0211 µM.
The corresponding values for `CNc1nc2c(C)cccc2cc1C(=O)N1CCC2(CC1)CC(=O)c1nc(C(C)(C)C)sc1C2` [Example 97] are 0.0018 µM and 0.0162 µM.
Take `CNc1cnc2c(C)cc(C(=O)N3CCC4(CC3)CC(=O)c3nc(C(C)(C)C)sc3C4)cc2c1` [Example 15, 2-(tert-butyl)-1′-(8-methyl-3-(methylamino)quinoline-6-carbonyl)-5H-spiro[benzo[d]thiazole-6,4′-piperidin]-4(7H)-one]: the results for the IC50 in series [1] and in series [2] were 0.0034 µM and 0.0129 µM, respectively.
With `Cn1ccc2c(Cl)cc(C(=O)N3CCC4(CC3)CC(=O)c3nc(C(C)(C)C)sc3C4)cc21` [Example 79], the results for the IC50 in series [1] and in series [2] were 0.0041 µM and 0.0167 µM, respectively.
Regarding `COc1cc(C(=O)N2CCC3(CC2)CC(=O)c2nc(C(C)(C)C)sc2C3)cc(OC)c1C` [Example 81], the figures for the IC50 in series [1] and in series [2] were 0.0117 µM and 0.0472 µM, respectively.
